Laboratory results taken from ChEMBL document CHEMBL1201862, “PubChem BioAssay data set” (2004).
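All cell lines were grown in 96-well plates and treated with compound for 48 hours. GI50 is the concentration that inhibits growth by half.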 The source made the active and inactive calls. Cut-off read from the data, not from the text of the source: active = GI50 up to about 1.1 µM and inactive = higher. Where a SMILES comes first, the peptide text is derived from it. [ ]: non-standard residue; d: D form. The star is where a group is joined. ξ: configuration not given here. ξPhe(4-NO2) = NC(Cc1ccc([N+](=O)[O-])cc1)C(=O)O; Boc = CC(C)(C)OC(=O)*; OBn = c1ccc(CO*)cc1

Assays:
Assay in all cases: NCI-60 cell line screen, 48 h
[1] = system: A498
[2] = system: ACHN
[3] = system: HCT-116
[4] = system: HL-60
[5] = system: HOP-62
[6] = system: M14
[7] = system: MCF7
[8] = system: MDA-N
[9] = system: MOLT-4
[10] = system: NCI-H460
[11] = system: NCI-H522
[12] = system: OVCAR-5
[13] = system: PC-3
[14] = system: RXF 393
[15] = system: SF-295
[16] = system: SK-OV-3
[17] = system: SNB-75
[18] = system: SR
[19] = system: SW-620
[20] = system: SF-539

Measured: GI50

CC(C)(C)OC(=O)NC(Cc1ccc([N+](=O)[O-])cc1)C(=O)NCC(=O)OCc1ccccc1 (stereo not drawn) (Boc-[ξPhe(4-NO2)]-Gly-OBn)
inactive: [1] 38.6 µM | [2] 23 µM | [3] 26.5 µM | [4] 36.1 µM | [5] 17.3 µM | [6] 19.5 µM | [7] 28.2 µM | [8] 19.1 µM | [9] 15 µM | [10] 21.9 µM | [11] 20.2 µM | [12] > 100 µM | [13] 17.2 µM | [14] 22.2 µM | [15] 20.5 µM | [16] 24.6 µM | [17] 18.4 µM | [18] 31.6 µM | [19] 29.6 µM

COc1ccc(-c2c3c(n(C4OC(CO)C(O)C(O)C4O)c(=S)c2C#N)CC(C)(C)CC3=O)cc1 (stereo not drawn)
inactive: [1] > 100 µM | [2] > 100 µM | [3] 73.3 µM | [4] > 100 µM | [5] > 100 µM | [6] > 100 µM | [7] > 100 µM | [8] > 100 µM | [9] 79.4 µM | [10] > 100 µM | [11] > 100 µM | [12] > 100 µM | [13] > 100 µM | [14] > 100 µM | [15] > 100 µM | [20] > 100 µM | [17] 96.6 µM | [18] 74.5 µM

N#CC1=C(N)OC(c2ccc([N+](=O)[O-])cc2)C1(C#N)C#N (stereo not drawn)
inactive: [1] 14.4 µM | [2] 10.2 µM | [3] 9.77 µM | [4] 3.46 µM | [5] 20.7 µM | [6] 16.7 µM | [7] 15.6 µM | [8] 9.18 µM | [9] 33.7 µM | [11] 6.62 µM | [12] 18.7 µM | [13] 17.1 µM | [14] 7.23 µM | [15] 33.7 µM | [20] 15.1 µM | [16] 26.2 µM | [17] 20.6 µM | [18] 3.97 µM | [19] 13.2 µM

CCOC(=O)NC(N(C)C(C(C)C)P(=O)(OCC)OCC)(C(F)(F)F)C(F)(F)F (stereo not drawn)
inactive: [1] > 100 µM | [2] > 100 µM | [3] > 100 µM | [4] > 100 µM | [5] > 100 µM | [6] > 100 µM | [7] > 100 µM | [8] > 100 µM | [9] > 100 µM | [10] > 100 µM | [11] > 100 µM | [12] > 100 µM | [13] > 100 µM | [14] > 100 µM | [15] > 100 µM | [20] > 100 µM | [17] > 100 µM | [18] > 100 µM | [19] 4.68 µM

O=C1c2ccccc2C(=O)c2c1ccc1c2OCO1
inactive: [1] > 100 µM | [2] > 10 µM | [3] > 100 µM | [4] > 100 µM | [5] > 100 µM | [6] > 100 µM | [7] > 100 µM | [8] > 100 µM | [9] > 100 µM | [11] > 100 µM | [12] > 100 µM | [13] > 100 µM | [14] > 100 µM | [15] > 100 µM | [20] > 100 µM | [16] > 100 µM | [17] 23.1 µM | [18] > 100 µM | [19] > 100 µM

Cc1nc2ccc([N+](=O)[O-])cc2c(=O)n1C(=S)Nc1cccc(Cl)c1
inactive: [1] 9.4 µM | [2] 17.5 µM | [3] 16 µM | [4] 14.2 µM | [5] 19.2 µM | [6] 21.9 µM | [7] 17.2 µM | [8] 16.4 µM | [9] 17.9 µM | [10] 14.9 µM | [12] 28.2 µM | [13] 15.2 µM | [14] 13.9 µM | [15] 18.3 µM | [20] 19.5 µM | [16] 22.5 µM | [17] 16.5 µM | [18] 31 µM | [19] 22 µM
